What was measured:
Test in all cases: Kinase Hotspot radiolabel assay
Assay type in all cases: biochemical
Settings in all cases: read-out: % Residual Activity
MEKK2 = target: T1, MEKK2 (Homo sapiens, UniProt Q9Y2U5)
T1 construct: purchased Reaction Biology Corporation (Kinase HotSpot)
Summary of the method: (§1)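 Profiled at 1 µM compound within a 369-kinase panel using a radiolabel Hotspot format. Ki values were then determined for kinases showing greater than 90% inhibition.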

RON/MST1R = target: T2, RON/MST1R (Homo sapiens, UniProt Q04912)
T2 construct: purchased Reaction Biology Corporation (Kinase HotSpot)
Summary of the method: as §1

ALK = target: T3, ALK (Homo sapiens, UniProt Q9UM73)
T3 construct: purchased Reaction Biology Corporation (Kinase HotSpot)
Summary of the method: as §1

ERBB4/HER4 = target: T4, ERBB4/HER4 (Homo sapiens, UniProt Q15303)
T4 construct: purchased Reaction Biology Corporation (Kinase HotSpot)
Summary of the method: as §1

WNK3 = target: T5, WNK3 (Homo sapiens, UniProt Q9BYP7)
T5 construct: purchased Reaction Biology Corporation (Kinase HotSpot)
Summary of the method: as §1

MEKK6 = target: T6, MEKK6 (Homo sapiens, UniProt O95382)
T6 construct: purchased Reaction Biology Corporation (Kinase HotSpot)
T6 sequence (O95382 whole entry): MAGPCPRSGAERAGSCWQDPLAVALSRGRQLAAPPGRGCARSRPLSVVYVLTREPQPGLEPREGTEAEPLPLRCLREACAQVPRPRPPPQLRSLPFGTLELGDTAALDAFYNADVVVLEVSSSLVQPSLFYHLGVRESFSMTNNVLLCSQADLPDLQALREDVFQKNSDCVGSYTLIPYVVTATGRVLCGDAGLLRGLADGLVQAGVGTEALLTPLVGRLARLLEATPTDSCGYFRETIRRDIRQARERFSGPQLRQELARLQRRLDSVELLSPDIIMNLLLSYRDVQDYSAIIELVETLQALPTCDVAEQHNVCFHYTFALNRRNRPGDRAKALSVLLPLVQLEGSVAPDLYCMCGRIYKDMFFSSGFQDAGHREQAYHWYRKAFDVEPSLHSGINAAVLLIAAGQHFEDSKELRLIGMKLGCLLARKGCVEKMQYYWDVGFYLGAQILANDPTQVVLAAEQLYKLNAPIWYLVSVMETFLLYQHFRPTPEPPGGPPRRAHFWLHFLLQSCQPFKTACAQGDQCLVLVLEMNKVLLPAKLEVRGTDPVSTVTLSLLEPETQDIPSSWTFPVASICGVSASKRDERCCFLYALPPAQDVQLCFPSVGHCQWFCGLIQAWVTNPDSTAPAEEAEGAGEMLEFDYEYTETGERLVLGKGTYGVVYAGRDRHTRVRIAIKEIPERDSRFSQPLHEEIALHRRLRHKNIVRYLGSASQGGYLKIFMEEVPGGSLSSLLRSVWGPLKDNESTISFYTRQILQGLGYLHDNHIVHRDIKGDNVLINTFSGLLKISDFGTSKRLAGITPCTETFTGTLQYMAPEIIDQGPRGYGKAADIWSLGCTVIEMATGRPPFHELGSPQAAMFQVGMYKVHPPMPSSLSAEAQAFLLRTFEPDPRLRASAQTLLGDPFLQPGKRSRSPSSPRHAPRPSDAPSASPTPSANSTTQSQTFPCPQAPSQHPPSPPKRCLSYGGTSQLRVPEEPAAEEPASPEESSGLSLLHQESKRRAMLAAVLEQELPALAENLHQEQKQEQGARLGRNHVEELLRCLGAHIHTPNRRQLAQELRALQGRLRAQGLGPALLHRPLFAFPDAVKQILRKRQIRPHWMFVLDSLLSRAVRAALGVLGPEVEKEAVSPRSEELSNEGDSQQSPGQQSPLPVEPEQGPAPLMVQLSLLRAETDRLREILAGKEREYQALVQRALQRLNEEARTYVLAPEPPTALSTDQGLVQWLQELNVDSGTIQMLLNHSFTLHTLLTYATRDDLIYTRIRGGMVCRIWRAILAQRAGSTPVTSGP
Summary of the method: as §1

PKCa = target: T7, PKCa (Homo sapiens, UniProt P17252)
T7 construct: purchased Reaction Biology Corporation (Kinase HotSpot)
Summary of the method: as §1

SNRK = target: T8, SNRK (Homo sapiens, UniProt Q9NRH2)
T8 construct: purchased Reaction Biology Corporation (Kinase HotSpot)
Summary of the method: as §1

IGF1R = target: T9, IGF1R (Homo sapiens, UniProt P08069)
T9 construct: purchased Reaction Biology Corporation (Kinase HotSpot)
T9 sequence (P08069 31-1367): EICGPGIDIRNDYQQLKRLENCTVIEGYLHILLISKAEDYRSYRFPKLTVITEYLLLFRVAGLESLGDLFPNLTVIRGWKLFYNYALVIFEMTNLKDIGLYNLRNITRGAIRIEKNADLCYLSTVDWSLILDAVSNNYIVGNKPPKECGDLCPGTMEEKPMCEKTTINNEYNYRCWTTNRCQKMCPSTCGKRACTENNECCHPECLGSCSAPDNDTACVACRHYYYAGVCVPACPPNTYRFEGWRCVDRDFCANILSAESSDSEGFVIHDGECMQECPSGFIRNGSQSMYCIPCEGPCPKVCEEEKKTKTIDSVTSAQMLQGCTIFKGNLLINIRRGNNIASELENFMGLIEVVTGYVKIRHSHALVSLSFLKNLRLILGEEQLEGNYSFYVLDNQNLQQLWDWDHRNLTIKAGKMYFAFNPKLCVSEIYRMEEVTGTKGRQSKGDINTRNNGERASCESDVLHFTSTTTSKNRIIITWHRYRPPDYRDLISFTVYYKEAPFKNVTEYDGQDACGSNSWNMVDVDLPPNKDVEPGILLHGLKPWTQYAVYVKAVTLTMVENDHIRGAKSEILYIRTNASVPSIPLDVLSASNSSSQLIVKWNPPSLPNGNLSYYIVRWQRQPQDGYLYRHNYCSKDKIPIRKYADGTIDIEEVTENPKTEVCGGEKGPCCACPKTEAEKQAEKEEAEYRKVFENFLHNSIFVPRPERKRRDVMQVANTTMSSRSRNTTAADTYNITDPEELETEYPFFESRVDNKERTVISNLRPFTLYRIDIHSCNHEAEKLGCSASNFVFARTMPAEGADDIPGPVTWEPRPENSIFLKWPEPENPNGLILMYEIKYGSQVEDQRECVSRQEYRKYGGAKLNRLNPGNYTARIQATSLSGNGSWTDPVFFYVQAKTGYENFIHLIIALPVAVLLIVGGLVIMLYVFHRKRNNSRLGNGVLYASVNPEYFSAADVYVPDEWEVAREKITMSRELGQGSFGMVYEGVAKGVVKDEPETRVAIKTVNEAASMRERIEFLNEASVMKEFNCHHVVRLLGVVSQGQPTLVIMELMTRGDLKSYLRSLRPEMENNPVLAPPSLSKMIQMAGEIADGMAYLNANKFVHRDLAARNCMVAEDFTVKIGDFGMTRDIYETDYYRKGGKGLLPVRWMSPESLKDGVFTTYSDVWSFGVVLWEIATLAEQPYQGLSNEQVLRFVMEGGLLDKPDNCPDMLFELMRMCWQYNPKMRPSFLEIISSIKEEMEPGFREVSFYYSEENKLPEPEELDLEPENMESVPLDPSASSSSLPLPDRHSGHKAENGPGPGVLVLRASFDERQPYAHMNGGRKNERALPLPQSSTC
Summary of the method: as §1

JNK1 = target: T10, JNK1 (Homo sapiens, UniProt P45983)
T10 construct: purchased Reaction Biology Corporation (Kinase HotSpot)
Summary of the method: as §1

PKCb1 = target: T11, PKCb1 (Homo sapiens, UniProt P05771)
T11 construct: purchased Reaction Biology Corporation (Kinase HotSpot)
Summary of the method: as §1

P38g = target: T12, P38g (Homo sapiens, UniProt P53778)
T12 construct: purchased Reaction Biology Corporation (Kinase HotSpot)
Summary of the method: as §1

DLK/MAP3K12 = target: T13, DLK/MAP3K12 (Homo sapiens, UniProt Q12852)
T13 construct: purchased Reaction Biology Corporation (Kinase HotSpot)
Summary of the method: as §1

GSK3a = target: T14, GSK3a (Homo sapiens, UniProt P49840)
T14 construct: purchased Reaction Biology Corporation (Kinase HotSpot)
Summary of the method: as §1

SGK1 = target: T15, SGK1 (Homo sapiens, UniProt O00141)
T15 construct: purchased Reaction Biology Corporation (Kinase HotSpot)
Summary of the method: as §1

SGK2 = target: T16, SGK2 (Homo sapiens, UniProt Q9HBY8)
T16 construct: purchased Reaction Biology Corporation (Kinase HotSpot)
T16 sequence (Q9HBY8 whole entry): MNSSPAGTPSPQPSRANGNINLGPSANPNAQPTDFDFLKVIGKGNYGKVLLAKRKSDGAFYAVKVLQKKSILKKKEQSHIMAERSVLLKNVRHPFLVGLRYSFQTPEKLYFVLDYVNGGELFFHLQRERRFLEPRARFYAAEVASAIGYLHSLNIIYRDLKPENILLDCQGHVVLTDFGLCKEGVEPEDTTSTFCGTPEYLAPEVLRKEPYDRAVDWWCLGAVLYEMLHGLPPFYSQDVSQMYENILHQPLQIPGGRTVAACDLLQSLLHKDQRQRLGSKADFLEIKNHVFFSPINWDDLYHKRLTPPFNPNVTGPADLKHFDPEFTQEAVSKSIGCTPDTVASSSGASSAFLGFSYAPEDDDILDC
Summary of the method: as §1

TNK1 = target: T17, TNK1 (Homo sapiens, UniProt Q13470)
T17 construct: purchased Reaction Biology Corporation (Kinase HotSpot)
Summary of the method: as §1

DAPK2 = target: T18, DAPK2 (Homo sapiens, UniProt Q9UIK4)
T18 construct: purchased Reaction Biology Corporation (Kinase HotSpot)
T18 sequence (Q9UIK4 whole entry): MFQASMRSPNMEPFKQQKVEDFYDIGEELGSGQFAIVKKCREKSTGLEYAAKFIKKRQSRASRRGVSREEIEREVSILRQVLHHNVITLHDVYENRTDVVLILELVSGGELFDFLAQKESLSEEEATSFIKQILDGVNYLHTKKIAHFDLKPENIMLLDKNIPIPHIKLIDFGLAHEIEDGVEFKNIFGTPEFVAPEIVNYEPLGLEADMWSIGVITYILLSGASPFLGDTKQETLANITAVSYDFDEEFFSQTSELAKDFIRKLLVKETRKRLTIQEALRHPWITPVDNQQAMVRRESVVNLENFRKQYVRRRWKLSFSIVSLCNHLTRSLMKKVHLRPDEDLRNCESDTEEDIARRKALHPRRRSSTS
Summary of the method: as §1

p70S6Kb/RPS6KB2 = target: T19, p70S6Kb/RPS6KB2 (Homo sapiens, UniProt Q9UBS0)
T19 construct: purchased Reaction Biology Corporation (Kinase HotSpot)
T19 sequence (Q9UBS0 whole entry): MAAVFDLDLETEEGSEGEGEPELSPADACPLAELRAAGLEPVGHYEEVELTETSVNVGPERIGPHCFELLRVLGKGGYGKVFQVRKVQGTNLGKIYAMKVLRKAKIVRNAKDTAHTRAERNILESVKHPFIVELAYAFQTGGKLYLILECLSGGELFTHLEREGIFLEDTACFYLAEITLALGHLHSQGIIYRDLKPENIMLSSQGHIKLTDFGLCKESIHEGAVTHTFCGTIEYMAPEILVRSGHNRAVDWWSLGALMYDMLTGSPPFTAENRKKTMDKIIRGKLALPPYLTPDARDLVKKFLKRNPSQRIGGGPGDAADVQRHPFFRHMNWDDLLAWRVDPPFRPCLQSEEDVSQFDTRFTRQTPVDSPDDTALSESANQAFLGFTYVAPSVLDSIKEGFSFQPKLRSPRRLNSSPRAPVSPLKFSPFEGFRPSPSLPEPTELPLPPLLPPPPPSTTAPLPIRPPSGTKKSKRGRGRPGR
Summary of the method: as §1

PKCd = target: T20, PKCd (Homo sapiens, UniProt Q05655)
T20 construct: purchased Reaction Biology Corporation (Kinase HotSpot)
T20 sequence (Q05655 whole entry): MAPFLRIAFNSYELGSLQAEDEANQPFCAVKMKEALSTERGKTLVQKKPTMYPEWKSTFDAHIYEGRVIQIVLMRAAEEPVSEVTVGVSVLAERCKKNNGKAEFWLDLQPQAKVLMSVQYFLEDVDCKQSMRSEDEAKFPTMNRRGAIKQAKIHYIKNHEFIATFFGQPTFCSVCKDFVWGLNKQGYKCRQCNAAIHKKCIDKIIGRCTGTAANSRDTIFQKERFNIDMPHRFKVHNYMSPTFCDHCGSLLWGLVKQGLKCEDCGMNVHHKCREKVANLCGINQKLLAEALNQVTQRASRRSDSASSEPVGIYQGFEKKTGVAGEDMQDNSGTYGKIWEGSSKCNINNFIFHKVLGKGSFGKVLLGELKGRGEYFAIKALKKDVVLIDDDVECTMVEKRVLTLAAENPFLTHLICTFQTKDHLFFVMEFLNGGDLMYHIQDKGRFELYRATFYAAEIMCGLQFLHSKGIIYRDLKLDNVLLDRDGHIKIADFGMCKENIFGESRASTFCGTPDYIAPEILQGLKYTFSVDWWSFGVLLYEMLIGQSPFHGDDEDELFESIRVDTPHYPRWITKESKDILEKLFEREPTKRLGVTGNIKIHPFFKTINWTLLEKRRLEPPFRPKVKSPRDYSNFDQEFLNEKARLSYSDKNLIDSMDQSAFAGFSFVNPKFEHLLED
Summary of the method: as §1

PKN1/PRK1 = target: T21, PKN1/PRK1 (Homo sapiens, UniProt Q16512)
T21 construct: purchased Reaction Biology Corporation (Kinase HotSpot)
Summary of the method: as §1

Aurora C = target: T22, Aurora C (Homo sapiens, UniProt Q9UQB9)
T22 construct: purchased Reaction Biology Corporation (Kinase HotSpot)
Summary of the method: as §1

YSK4/MAP3K19 = target: T23, YSK4/MAP3K19 (Homo sapiens, UniProt Q56UN5)
T23 construct: purchased Reaction Biology Corporation (Kinase HotSpot)
Summary of the method: as §1

WNK1 = target: T24, WNK1 (Homo sapiens, UniProt Q9H4A3)
T24 construct: purchased Reaction Biology Corporation (Kinase HotSpot)
Summary of the method: as §1

KSR2 = target: T25, KSR2 (Homo sapiens, UniProt Q6VAB6)
T25 construct: purchased Reaction Biology Corporation (Kinase HotSpot)
Summary of the method: as §1

CK1d = target: T26, CK1d (Homo sapiens, UniProt P48730)
T26 construct: purchased Reaction Biology Corporation (Kinase HotSpot)
T26 sequence (P48730 whole entry): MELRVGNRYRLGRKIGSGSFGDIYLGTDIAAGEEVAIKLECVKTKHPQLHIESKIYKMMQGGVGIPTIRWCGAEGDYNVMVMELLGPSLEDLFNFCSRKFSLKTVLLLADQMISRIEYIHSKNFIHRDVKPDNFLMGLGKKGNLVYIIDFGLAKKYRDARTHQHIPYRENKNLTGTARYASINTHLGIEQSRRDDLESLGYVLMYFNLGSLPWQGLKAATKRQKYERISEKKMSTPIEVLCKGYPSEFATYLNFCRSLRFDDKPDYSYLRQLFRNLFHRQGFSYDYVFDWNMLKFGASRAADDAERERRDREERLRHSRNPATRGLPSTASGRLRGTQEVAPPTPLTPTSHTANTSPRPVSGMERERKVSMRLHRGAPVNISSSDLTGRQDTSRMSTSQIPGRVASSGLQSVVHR
Summary of the method: as §1

RIPK4 = target: T27, RIPK4 (Homo sapiens, UniProt P57078)
T27 construct: purchased Reaction Biology Corporation (Kinase HotSpot)
Summary of the method: as §1

TAK1 = target: T28, TAK1 (Homo sapiens, UniProt O43318)
T28 construct: purchased Reaction Biology Corporation (Kinase HotSpot)
Summary of the method: as §1

MLCK2/MYLK2 = target: T29, MLCK2/MYLK2 (Homo sapiens, UniProt Q9H1R3)
T29 construct: purchased Reaction Biology Corporation (Kinase HotSpot)
Summary of the method: as §1

TYK1/LTK = target: T30, TYK1/LTK (Homo sapiens, UniProt P29376)
T30 construct: purchased Reaction Biology Corporation (Kinase HotSpot)
Summary of the method: as §1

In the case of `Cc1cnc(N[C@H]2CC[C@H](N)CC2)nc1-c1cnc2ccc(-c3ccccc3)cn12` [CDDD11-8], the remaining activity at 1 µM (MEKK2) is reported as 105%, the remaining activity at 1 µM (RON/MST1R) is reported as 97.9% and the remaining activity at 1 µM (ALK) is reported as 68.9%. It also gave a remaining activity at 1 µM (ERBB4/HER4) of 96.9%, a remaining activity at 1 µM (WNK3) of 84% and a remaining activity at 1 µM (MEKK6) of 104%. For the same compound, the remaining activity at 1 µM (PKCa) was 76%, the remaining activity at 1 µM (SNRK) was 100% and the remaining activity at 1 µM (IGF1R) was 79%. The remaining activity at 1 µM (JNK1) was 105%, the remaining activity at 1 µM (PKCb1) was 87.4% and the remaining activity at 1 µM (P38g) was 100%. It also gave a remaining activity at 1 µM (DLK/MAP3K12) of 45.8%, a remaining activity at 1 µM (GSK3a) of 70.1% and a remaining activity at 1 µM (SGK1) of 95.4%. The remaining activity at 1 µM (SGK2) was 113%, the remaining activity at 1 µM (TNK1) was 55.4% and the remaining activity at 1 µM (DAPK2) was 81.2%. The remaining activity at 1 µM (p70S6Kb/RPS6KB2) was 98.6%, the remaining activity at 1 µM (PKCd) was 47.6% and the remaining activity at 1 µM (PKN1/PRK1) was 63.8%. The remaining activity at 1 µM (Aurora C) was 82.1%, the remaining activity at 1 µM (YSK4/MAP3K19) was 63.5% and the remaining activity at 1 µM (WNK1) was 90%. The remaining activity at 1 µM (KSR2) was 101%, the remaining activity at 1 µM (CK1d) was 17.6% and the remaining activity at 1 µM (RIPK4) was 72.6%. It also gave a remaining activity at 1 µM (TAK1) of 77.8%, a remaining activity at 1 µM (MLCK2/MYLK2) of 25.9% and a remaining activity at 1 µM (TYK1/LTK) of 90.8%.
